The values that follow come from ChEMBL document CHEMBL2331210, “New 2-benzylsulfanyl-nicotinic acid based 1,3,4-oxadiazoles: their synthesis and biological evaluation” (2013).

Values after ≈ are worked out from the molar mass of the structure shown.

Holding throughout (type): functional
For assay [1], the system named is Mycobacterium tuberculosis. As to the kind of experiment: Antitubercular activity against Mycobacterium tuberculosis H37Rv assessed as growth inhibition after 12 to 28 days by L.J. agar MIC method. The settings on record: for MIC: Mycobacterium tuberculosis, H37Rv.
The test system of another assay is Aspergillus clavatus. As to the kind of experiment: Antimicrobial activity against Aspergillus clavatus MTCC 1323 assessed as growth inhibition measured after overnight incubation by broth dilution method. Background: In broth dilution the organism is exposed to a series of concentrations in liquid medium.
For the next assay, the system named is Aspergillus niger. As to the kind of experiment: Antimicrobial activity against Aspergillus niger MTCC 282 assessed as growth inhibition measured after overnight incubation by broth dilution method.
For the next assay, the system named is Candida albicans. As to the kind of experiment: Antimicrobial activity against Candida albicans MTCC 227 assessed as growth inhibition measured after overnight incubation by broth dilution method.
A further assay has as its system Pseudomonas aeruginosa. As to the kind of experiment: Antimicrobial activity against Pseudomonas aeruginosa MTCC 2488 assessed as growth inhibition measured after overnight incubation by broth dilution method.
The subject of a further assay is Escherichia coli. As to the kind of experiment: Antimicrobial activity against Escherichia coli MTCC 443 assessed as growth inhibition measured after overnight incubation by broth dilution method.
The next assay concerns Streptococcus pyogenes. As to the kind of experiment: Antimicrobial activity against Streptococcus pyogenes MTCC 442 assessed as growth inhibition measured after overnight incubation by broth dilution method.
For another assay, the system named is Staphylococcus aureus. As to the kind of experiment: Antimicrobial activity against Staphylococcus aureus MTCC 96 assessed as growth inhibition measured after overnight incubation by broth dilution method.

As usually defined, the MIC is the least concentration at which growth counts as inhibited. `S=c1[nH]nc(-c2cccnc2SCc2ccccc2)o1`: the “growth inhibition (GI)” value in assay [1] is 99%. For the same compound, the minimum inhibitory concentration (MIC) in assay [1] is 100 mg/L (≈ 332 µM); with Aspergillus clavatus, 200 mg/L (≈ 664 µM); with Aspergillus niger it was 1000 mg/L (≈ 3320 µM); in the assay on Candida albicans it was 1000 mg/L (≈ 3320 µM); with Pseudomonas aeruginosa, 125 mg/L (≈ 415 µM); in the assay with Escherichia coli, 100 mg/L (≈ 332 µM). In addition, the MIC with Streptococcus pyogenes and in the assay on Staphylococcus aureus was 100 mg/L (≈ 332 µM) throughout.

Take `N#CSc1ccc2nc(NC(=O)CSc3nnc(-c4cccnc4SCc4ccccc4)o3)sc2c1`: the “growth inhibition (GI)” value in assay [1] was found to be 99%. The MIC came out at 50 mg/L (≈ 91.1 µM) in assay [1]; 250 mg/L (≈ 456 µM) in the assay with Aspergillus clavatus; 100 mg/L (≈ 182 µM) in the assay on Aspergillus niger; 500 mg/L (≈ 911 µM) in the assay with Candida albicans; 62.5 mg/L (≈ 114 µM) with Pseudomonas aeruginosa; 250 mg/L (≈ 456 µM) in the assay with Escherichia coli. In addition, the values for the minimal inhibitory concentration (MIC) in the assay with Streptococcus pyogenes and with Staphylococcus aureus were 12.5 mg/L (≈ 22.8 µM) and 250 mg/L (≈ 456 µM), respectively.

`c1ccc(CSc2ncccc2-c2nnc(SCC3CO3)o2)cc1` (configuration not stated): the “growth inhibition (GI)” value in assay [1] worked out at 97%. For the same compound, the minimum inhibitory concentration (MIC) was 500 mg/L (≈ 1400 µM) in assay [1]; 1000 mg/L (≈ 2800 µM) in the assay with Aspergillus clavatus; 1000 mg/L (≈ 2800 µM) in the assay with Aspergillus niger; 500 mg/L (≈ 1400 µM) in the assay on Candida albicans; 125 mg/L (≈ 350 µM) in the assay on Pseudomonas aeruginosa; 62.5 mg/L (≈ 175 µM) in the assay with Escherichia coli. Besides, the MIC with Streptococcus pyogenes was 250 mg/L (≈ 699 µM); with Staphylococcus aureus, 62.5 mg/L (≈ 175 µM).

Turning to `Cc1cnc(NC(=O)CCl)s1`, the “growth inhibition (GI)” value in assay [1] was 97%. For the same compound, the MIC is 250 mg/L (≈ 1310 µM) in assay [1]; 500 mg/L (≈ 2620 µM) in the assay with Aspergillus clavatus; 500 mg/L (≈ 2620 µM) in the assay with Aspergillus niger; 200 mg/L (≈ 1050 µM) in the assay with Candida albicans; 250 mg/L (≈ 1310 µM) in the assay on Pseudomonas aeruginosa; 250 mg/L (≈ 1310 µM) in the assay with Escherichia coli. For the same compound, the minimum inhibitory concentration (MIC) in the assay with Streptococcus pyogenes was 250 mg/L (≈ 1310 µM); in the assay with Staphylococcus aureus, 500 mg/L (≈ 2620 µM).

Take `COC1=CC(=O)C[C@@H](C)[C@]12Oc1c(Cl)c(OC)cc(OC)c1C2=O` [GRISEOFULVIN]: the figures for the minimal inhibitory concentration (MIC) with Aspergillus clavatus, in the assay on Aspergillus niger and in the assay on Candida albicans were 100 mg/L (≈ 283 µM), 100 mg/L (≈ 283 µM) and 500 mg/L (≈ 1420 µM), respectively.

Regarding `CC1(C)S[C@@H]2[C@H](NC(=O)[C@H](N)c3ccccc3)C(=O)N2[C@H]1C(=O)O` [AMPICILLIN], the MIC worked out at 100 mg/L (≈ 286 µM) in the assay on Pseudomonas aeruginosa, 100 mg/L (≈ 286 µM) with Escherichia coli, 100 mg/L (≈ 286 µM) in the assay with Streptococcus pyogenes and 250 mg/L (≈ 715 µM) in the assay on Staphylococcus aureus.

Regarding `NNC(=O)c1cccnc1SCc1ccccc1`, in assay [1], the “growth inhibition (GI)” value is reported as 99%. For the same compound, the minimal inhibitory concentration (MIC) in assay [1] was found to be 250 mg/L (≈ 964 µM); in the assay on Aspergillus clavatus, 250 mg/L (≈ 964 µM); in the assay with Aspergillus niger, 500 mg/L (≈ 1930 µM); in the assay with Candida albicans, 500 mg/L (≈ 1930 µM); in the assay with Pseudomonas aeruginosa it was 200 mg/L (≈ 771 µM); in the assay with Escherichia coli, 125 mg/L (≈ 482 µM). Also, the minimum inhibitory concentration (MIC) in the assay on Streptococcus pyogenes and with Staphylococcus aureus was 125 mg/L (≈ 482 µM) throughout.

Consider `CN1CCN(C(=O)CCl)CC1`, for which, in assay [1], the “growth inhibition (GI)” value turned out to be 99%. Moreover, the MIC in assay [1] was 250 mg/L (≈ 1420 µM); in the assay with Aspergillus clavatus, 500 mg/L (≈ 2830 µM); with Aspergillus niger, greater than 1000 mg/L; in the assay on Candida albicans, 1000 mg/L (≈ 5660 µM); in the assay with Pseudomonas aeruginosa, 100 mg/L (≈ 566 µM); in the assay with Escherichia coli, 125 mg/L (≈ 708 µM). For the same compound, the minimum inhibitory concentration (MIC) was determined as 100 mg/L (≈ 566 µM) with Streptococcus pyogenes and 250 mg/L (≈ 1420 µM) in the assay with Staphylococcus aureus.

On to `COc1cc(OC)nc(NC(=O)CCl)n1`, for which, in assay [1], the “growth inhibition (GI)” value is on record as 98%. The minimum inhibitory concentration (MIC) in assay [1] is 250 mg/L (≈ 1080 µM); in the assay with Aspergillus clavatus it was greater than 1000 mg/L; with Aspergillus niger, 1000 mg/L (≈ 4320 µM); with Candida albicans it was 500 mg/L (≈ 2160 µM); in the assay on Pseudomonas aeruginosa it was 125 mg/L (≈ 540 µM); with Escherichia coli it was 100 mg/L (≈ 432 µM). The minimal inhibitory concentration (MIC) is 125 mg/L (≈ 540 µM) in the assay on Streptococcus pyogenes and 500 mg/L (≈ 2160 µM) in the assay on Staphylococcus aureus.

Turning to `O=C(CSc1nnc(-c2cccnc2SCc2ccccc2)o1)Nn1cnnc1`, in assay [1], the “growth inhibition (GI)” value was 99%. The MIC in assay [1] turned out to be 25 mg/L (≈ 58.8 µM); in the assay on Aspergillus clavatus, 500 mg/L (≈ 1180 µM); in the assay on Aspergillus niger, 1000 mg/L (≈ 2350 µM); in the assay on Candida albicans it was 100 mg/L (≈ 235 µM); in the assay with Pseudomonas aeruginosa, 125 mg/L (≈ 294 µM); in the assay on Escherichia coli, 100 mg/L (≈ 235 µM). The MIC amounted to 125 mg/L (≈ 294 µM) in the assay with Streptococcus pyogenes and 250 mg/L (≈ 588 µM) with Staphylococcus aureus.

With `CO[C@H]1/C=C/O[C@@]2(C)Oc3c(C)c(O)c4c(O)c(c(/C=N/N5CCN(C)CC5)c(O)c4c3C2=O)NC(=O)/C(C)=C\C=C\[C@H](C)[C@H](O)[C@@H](C)[C@@H](O)[C@@H](C)[C@H](OC(C)=O)[C@@H]1C` [RIFAMPIN], in assay [1], the “growth inhibition (GI)” value worked out at 99% and the minimal inhibitory concentration (MIC) is 40 mg/L (≈ 48.6 µM).

For `O=C(CCl)Nc1nc(Cl)cc(Cl)n1`, in assay [1], the “growth inhibition (GI)” value is on record as 88%. Further, the MIC in assay [1] was 500 mg/L (≈ 2080 µM); in the assay on Aspergillus clavatus it was greater than 1000 mg/L; with Aspergillus niger, greater than 1000 mg/L; in the assay on Candida albicans, 250 mg/L (≈ 1040 µM); with Pseudomonas aeruginosa it was 500 mg/L (≈ 2080 µM); with Escherichia coli, 200 mg/L (≈ 832 µM). The MIC with Streptococcus pyogenes stood at 200 mg/L (≈ 832 µM); with Staphylococcus aureus, 500 mg/L (≈ 2080 µM).

Regarding `Cc1ccc2sc(-c3ccc(NC(=O)CCl)cc3)nc2c1`, the “growth inhibition (GI)” value in assay [1] is 99%. Moreover, the MIC in assay [1] was 200 mg/L (≈ 631 µM); in the assay with Aspergillus clavatus, 500 mg/L (≈ 1580 µM); in the assay on Aspergillus niger, 1000 mg/L (≈ 3160 µM); in the assay on Candida albicans, 500 mg/L (≈ 1580 µM); in the assay on Pseudomonas aeruginosa, 100 mg/L (≈ 316 µM); with Escherichia coli, 125 mg/L (≈ 395 µM). For the same compound, the MIC worked out at 100 mg/L (≈ 316 µM) in the assay on Streptococcus pyogenes and 250 mg/L (≈ 789 µM) in the assay with Staphylococcus aureus.

On to `O=C(CCl)Nn1cnnc1`, for which, in assay [1], the “growth inhibition (GI)” value was 90%. In addition, the minimal inhibitory concentration (MIC) is 1000 mg/L (≈ 6230 µM) in assay [1]; greater than 1000 mg/L in the assay on Aspergillus clavatus; greater than 1000 mg/L with Aspergillus niger; 1000 mg/L (≈ 6230 µM) in the assay with Candida albicans; 250 mg/L (≈ 1560 µM) in the assay on Pseudomonas aeruginosa; 250 mg/L (≈ 1560 µM) in the assay on Escherichia coli. In addition, the results for the MIC in the assay on Streptococcus pyogenes and in the assay on Staphylococcus aureus were 250 mg/L (≈ 1560 µM) and 500 mg/L (≈ 3110 µM), respectively.

In the case of `CCOC(=O)CSc1nnc(-c2cccnc2SCc2ccccc2)o1`, the “growth inhibition (GI)” value in assay [1] is 98%. The MIC turned out to be 100 mg/L (≈ 258 µM) in assay [1]; 1000 mg/L (≈ 2580 µM) in the assay with Aspergillus clavatus; 1000 mg/L (≈ 2580 µM) in the assay on Aspergillus niger; 1000 mg/L (≈ 2580 µM) with Candida albicans; 200 mg/L (≈ 516 µM) in the assay with Pseudomonas aeruginosa; 500 mg/L (≈ 1290 µM) in the assay on Escherichia coli. The minimal inhibitory concentration (MIC) worked out at 125 mg/L (≈ 323 µM) in the assay on Streptococcus pyogenes and 500 mg/L (≈ 1290 µM) with Staphylococcus aureus.
